Assay results taken from US20090246292A1, “ANTIMICROBIAL FORMULATIONS COMPRISING A QUINONE AND A COPPER SALT” (priority 2006, published 2009).

Legend:
P. acnes NCTC 737 [1] = assay: Disc diffusion assay (DDA), also supplemented; details: for DDA + salt & lipid: Example 8, single compound, salt and 1% (v/v) triolein;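 on all read-outs here: paper disc carrying compound placed on inoculated Wilkins-Chalgren Anaerobe agar pH 6.0, with lipid or NaCl supplement where listed, anaerobic 37 °C for 72 h, inhibition zone diameter read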
P. acnes NCTC 737 [2] = assay: Synergy disc diffusion assay (SDDA), also supplemented; details: for SL SDDA area increase / SL SDDA increase / SL SDDA with CSL / SL SDDA with CSPH: salt and lipid (1% (v/v) triolein); for SDDA area increase / SDDA increase: unsupplemented
S. aureus ATCC 29213 [3] = assay: Disc diffusion assay (DDA), also supplemented; details: Example 9; single compound; salt and serum
Protocol: The staphylococci were cultured and maintained on Mueller-Hinton Medium (agar and broth) at pH 7.2; cultures were incubated aerobically at 37° C. for 19-20 hours.
(d) Disc Diffusion Assay (DDA)
A sterile paper disc was impregnated with a sample of the test compound in a suitable solvent and 30 minutes allowed for the solvents to evaporate (where possible). The disc was then placed on an agar plate onto which the test micro-organism had been inoculated. The plate was then incubated under the conditions described above, following which it was examined visually for signs of bacterial growth. […] The diameter of this zone of “inhibition” was measured using a ProtoCOL™ automated zone sizer (Synbiosis, Cambridge, UK).
(f) Supplemented Disc Diffusion Assays
(§1) For assays using S. aureus ATCC 29213 the supplements used were sodium chloride (100 mM), lipid (Tween™ 80 at 1% v/v) and horse serum (5% v/v).

S. aureus ATCC 29213 [4] = assay: Synergy disc diffusion assay (SDDA), also supplemented; details: for SDDA area increase / SDDA increase: unsupplemented;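 on all read-outs here: disc diffusion on Mueller-Hinton agar at pH 7.2, aerobic incubation at 37 °C lasting 19-20 h, two compounds assessed jointly for combined antimicrobial effect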
Protocol: (e) Synergy Disc Diffusion Assay (SDDA)
This is a variation on the DDA method, in which two compounds are tested together for their combined antimicrobial activity.
Two test compounds A and B were placed on a single paper disc and the above described DDA procedure repeated.
(f) Supplemented Disc Diffusion Assays
as §1

[5] = quinone + CSL, salt and serum supplements
[6] = quinone + CSPH, salt and serum supplements

Compound	DDA + salt & lipid (P. acnes NCTC 737 [1])	SL SDDA area increase (P. acnes NCTC 737 [2]; quinone + CSL) [%]	SL SDDA increase (P. acnes NCTC 737 [2]; quinone + CSL) [mm]	SL SDDA with CSL (P. acnes NCTC 737 [2]; quinone + CSL)	SDDA area increase (P. acnes NCTC 737 [2]; quinone + CSL) [%]	SDDA increase (P. acnes NCTC 737 [2]; quinone + CSL) [mm]	SL SDDA area increase (P. acnes NCTC 737 [2]; quinone + CSPH) [%]	SL SDDA increase (P. acnes NCTC 737 [2]; quinone + CSPH) [mm]	SL SDDA with CSPH (P. acnes NCTC 737 [2]; quinone + CSPH)	SDDA area increase (P. acnes NCTC 737 [2]; quinone + CSPH) [%]	SDDA increase (P. acnes NCTC 737 [2]; quinone + CSPH) [mm]	DDA (P. acnes NCTC 737 [1])	SDDA with CSL (P. acnes NCTC 737 [2])	SDDA with CSPH (P. acnes NCTC 737 [2])	other results
CC(C)(C)C1=CC(=O)C=CC1=O	45.13 (±1.45) mm	56.24	11.28	56.41 (±2.58) mm	63.59	11.39	10.60	2.56	52.10 (±2.56) mm	61.51	11.39				
O=C1C=CC(=O)C(Cl)=C1 [2-chloro-1,4-benzoquinone]	24.31 (±0.81) mm	31.58	6.26	48.82 (±0.47) mm	26.16	5.03	3.75	0.92	50.46 (±2.15) mm	26.42	5.23	22.15 (±0.53) mm	45.85 (±0.31) mm	47.28 (±1.39) mm	
CCc1cc(O)ccc1O [2-ethyl-p-hydroquinone]	33.74 (±1.69) mm	31.58	6.26	48.82 (±0.47) mm	33.02	6.26	11.07	2.67	52.21 (±0.18) mm	44.00	8.41				DDA + salt & serum (S. aureus ATCC 29213 [3]): 25.26 (±1.29) mm; SS SDDA area increase (S. aureus ATCC 29213 [4]; [5]): 41.05%; SS SDDA increase (S. aureus ATCC 29213 [4]; [5]): 4.74 mm; SS SDDA with CSL (S. aureus ATCC 29213 [4]; [5]): 30.00 (±2.47) mm; SDDA area increase (S. aureus ATCC 29213 [4]; quinone + CSL): 151.18%; SDDA increase (S. aureus ATCC 29213 [4]; quinone + CSL): 14.23 mm; SS SDDA area increase (S. aureus ATCC 29213 [4]; [6]): 68.40%; SS SDDA increase (S. aureus ATCC 29213 [4]; [6]): 7.52 mm; SS SDDA with CSPH (S. aureus ATCC 29213 [4]; [6]): 32.78 (±0.31) mm; SDDA area increase (S. aureus ATCC 29213 [4]; quinone + CSPH): 157.87%; SDDA increase (S. aureus ATCC 29213 [4]; quinone + CSPH): 14.74 mm
CC1=CC(=O)C=CC1=O [2-methyl-p-benzoquinone]	35.18 (±1.24) mm	37.19	7.29	49.85 (±3.20) mm	47.88	8.82	18.59	4.41	53.95 (±1.16) mm	38.80	7.49	33.74 (±1.52) mm	49.64 (±0.99) mm	49.54 (±0.81) mm	
